According to patent EP4806899A1, “FUSED RING DERIVATIVE, PREPARATION METHOD THEREFOR AND USE THEREOF IN MEDICINE” (Shanghai Qilu Pharmaceutical Research and Development …, priority 2023, dated 2025):
One block for each compound: values may come before it.

Assays:
plasma hormone levels = experiment: Pharmacodynamic determination in monkeys: plasma aldosterone and cortisol after ACTH stimulation; format: in vivo, cynomolgus monkeys; details: P.O.
Experimental: Cynomolgus monkeys were used as test animals to evaluate the pharmacodynamics of multiple compounds of the present disclosure on plasma hormone levels following gavage administration (P.O.) at various doses such as 0.1 mpk (and others, e.g., 0.03 mpk, 0.1 mpk, and 0.3 mpk).
Male cynomolgus monkeys, Suzhou Xishan Zhongke Laboratory Animal Co., Ltd. Animal production license number: SCXK (Su) 2023-0001, animal use license number: SYXK (Su) 2020-0017.
Male cynomolgus monkeys were performed gavage administration (P.O.) at doses set as: 0 mpk (vehicle group, i.e., Veh group), 0.03 mpk, 0.1 mpk, and 0.3 mpk. In each group, 15 µg/kg ACTH was injected intramuscularly 1 hour after dosing. Continuous venous blood samples were collected from each group at 1 hour before administration and at multiple time points after administration. Blood samples were collected, and plasma aldosterone and its precursors, as well as plasma corticosterone and its precursors, at multiple time points were analyzed using LC/MS methods.
Venous blood samples were collected at 1-2 hours before gavage administration and at multiple time points after intramuscular injection of ACTH (adrenocorticotropic hormone). The samples were placed in EDTA-K2 tubes, centrifuged at 4 °C, 2600 g for 10 minutes to separate plasma, which was then stored at -80 °C.
• HPLC: Waters ACQUITY UPLC I-Class PLUS; • Mass spectrometry conditions: Triple Quad™ 7500 (Serial No. FA224362212) mass spectrometer; • Chromatographic column: phenomenex kinetex 2.6µm C8 100A 50 × 4.60 mm; • Mobile phase: mobile phase A was 0.5 mM ammonium fluoride solution containing 0.1% formic acid; mobile phase B was MeOH.
The data in Figs. 1, 2, 3, 4, and 5 are analyzed based on PD changes at 30 minutes after ACTH stimulation. The percentage of PD relative to the control group (Veh group) at 30 minutes after ACTH stimulation serves as the main basis for pharmacodynamic evaluation, calculated according to the following formula: [formula] where PD refers to aldosterone or cortisol. Table 8 Pharmacodynamic Evaluation of Example Compound C44 in Monkeys

in vivo = details: rat, in vivo, po, 10 mg/kg
Experimental: • 1) 50 µL of plasma sample was precipitated by adding 200 µL of acetonitrile, vortex mixed, and centrifuged for 15 minutes. • 2) The processed supernatant was diluted with water and analyzed by LC/MS/MS to determine the concentration of the test compound.
Pharmacokinetic parameters were calculated using WinNonlin 8.3. […] Cmax represents the maximum plasma concentration, T1/2 represents the terminal elimination half-life, MRTInf represents the mean residence time, and AUC represents the area under the plasma concentration-time curve.

[1] = Pharmacokinetic determination in mice after gavage administration (P.O.); format: in vivo; details: male, CD-1, mouse, po, 10 mg/kg, plasma
Experimental: Mice and rats were used as test animals to study the pharmacokinetic behavior of the compounds of the present disclosure in plasma following gavage administration (P.O.). Plasma samples were collected at specific time points, compound concentrations in plasma were detected by LC-MS/MS, and pharmacokinetic parameters were calculated to evaluate the pharmacokinetics.
• Mice, CD-1, male, Zhejiang Vital River Laboratory Animal Technology Co., Ltd. • Rats, Sprague-Dawley, male, Zhejiang Vital River Laboratory Animal Technology Co., Ltd., Shanghai Jihui Experimental Animal Breeding Co., Ltd.
After administration to mice and rats, venous blood samples of 0.03 mL and 0.2 mL, respectively, were collected at 0.0833 (IV), 0.25, 0.5, 1, 2, 4, 8, and 24 hours and placed in EDTA-K2 test tubes. Plasma was separated by centrifugation at 4 °C, 4000 g for 5 minutes and stored at -80 °C.
• 1) 10 µL of plasma sample was precipitated by adding 200 µL of acetonitrile, vortex mixed, and centrifuged for 15 minutes. • 2) The processed supernatant was diluted with water and analyzed by LC/MS/MS to determine the concentration of the test compound.
Pharmacokinetic parameters were calculated using WinNonlin 8.3. The pharmacokinetic parameters for mice P.O. are shown in Table 4, and for rats P.O. in Table 5. Cmax represents the maximum plasma concentration, T1/2 represents the terminal elimination half-life, MRTInf represents the mean residence time, and AUC represents the area under the plasma concentration-time curve. Table 4 Pharmacokinetic Parameters of the Compounds of the Present Disclosure in Mice

[2] = 0.03 mpk, 30min after ACTH stimulation, plasma
[3] = 0.1 mpk, 30min after ACTH stimulation, plasma
[4] = 0.3 mpk, 30min after ACTH stimulation, plasma

AUC(0-t) at 24 h (in vivo): 190 µM·h
Cmax (in vivo): 22.7 µM
MRT inf (in vivo): 5.3 h
half-life (in vivo): 3.47 h
SMILES: CCC(=O)N[C@@H]1CCOc2c(-c3ccc4c(c3)CCC(=O)N4C)cncc21 [Compound A02-P2]
Cortisol (plasma hormone levels; 0.03 mpk, 0h, plasma): 269.0 ng/mL
Aldosterone (plasma hormone levels; 0.03 mpk, 0h, plasma (Table 12)): 0.13 ng/mL
Cortisol (plasma hormone levels; [2]): 384.0 ng/mL
Aldosterone (plasma hormone levels; 0.03 mpk, 30min after ACTH stimulation, plasma (Table 12)): 0.27 ng/mL
Cortisol (plasma hormone levels; 0.1 mpk, 0h, plasma): 436.0 ng/mL
Aldosterone (plasma hormone levels; 0.1 mpk, 0h, plasma (Table 12)): 0.40 ng/mL
Cortisol (plasma hormone levels; [3]): 599.0 ng/mL
Aldosterone (plasma hormone levels; 0.1 mpk, 30min after ACTH stimulation, plasma (Table 12)): 0.20 ng/mL
Aldosterone (plasma hormone levels; 0.3 mpk (dose printed 03), 0h, plasma (Table 12)): 0.13 ng/mL
Aldosterone (plasma hormone levels; 0.3 mpk (dose printed 03), 30min after ACTH stimulation, plasma (Table 12)): 0.05 ng/mL
Cortisol (plasma hormone levels; 0.3 mpk, 0h, plasma): 283.0 ng/mL
Cortisol (plasma hormone levels; [4]): 387.0 ng/mL

Cmax [1]: 9.07 µM
AUC(0-t) ([1]; read-out: AUC0-24): 136 µM·h
SMILES: [2H]C([2H])([2H])OC(=O)N[C@@H]1CCOc2c(-c3cc(F)c4c(ccc(=O)n4C)c3)cncc21 [Compound A50]
Aldosterone (plasma hormone levels; 0.03 mpk, 0h, plasma): 0.12 ng/mL
Cortisol (plasma hormone levels; 0.03 mpk, 0h, plasma): 358.3 ng/mL
Aldosterone (plasma hormone levels; [2]): 0.22 ng/mL
Cortisol (plasma hormone levels; [2]): 430.0 ng/mL
Aldosterone (plasma hormone levels; 0.1 mpk, 0h, plasma): 0.49 ng/mL
Cortisol (plasma hormone levels; 0.1 mpk, 0h, plasma): 282.0 ng/mL
Aldosterone (plasma hormone levels; [3]): 0.12 ng/mL
Cortisol (plasma hormone levels; [3]): 386.0 ng/mL
Aldosterone (plasma hormone levels; 0.3 mpk, 0h, plasma): 0.12 ng/mL
Cortisol (plasma hormone levels; 0.3 mpk, 0h, plasma): 304.7 ng/mL
Aldosterone (plasma hormone levels; [4]): 0.06 ng/mL
Cortisol (plasma hormone levels; [4]): 369.7 ng/mL
